From PubChem BioAssay (NCI)
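Interpolation was linear, between the two tested concentrations surrounding the appropriate level; five concentrations were tested over 48 hours in 96-well plates. TGI denotes the concentration required for complete inhibition of growth.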

Columns and labels:
Experiment in all cases: NCI tumour cell line growth inhibition, 48 h
OVCAR-5 ovarian = test system: OVCAR-5 ovarian
DU-145 prostate = test system: DU-145 prostate
NCI-H23 lung = test system: NCI-H23 lung
EKVX NSCLC = test system: EKVX NSCLC
NCI-H460 lung = test system: NCI-H460 lung
MDA-MB-231 breast = test system: MDA-MB-231 breast
CAKI-1 renal = test system: CAKI-1 renal
MDA-N = test system: MDA-N
PC-3 prostate = test system: PC-3 prostate
MDA-MB-435 = test system: MDA-MB-435
SK-MEL-5 melanoma = test system: SK-MEL-5 melanoma
RXF 393 renal = test system: RXF 393 renal
HL-60(TB) leukemia = test system: HL-60(TB) leukemia
SF-295 CNS = test system: SF-295 CNS
MALME-3M melanoma = test system: MALME-3M melanoma
SN12K1 renal = test system: SN12K1 renal
HOP-92 NSCLC = test system: HOP-92 NSCLC
BT-549 breast = test system: BT-549 breast
HT29 colon = test system: HT29 colon
M14 melanoma = test system: M14 melanoma
M19-MEL melanoma = test system: M19-MEL melanoma
HOP-62 NSCLC = test system: HOP-62 NSCLC
MOLT-4 leukemia = test system: MOLT-4 leukemia
SNB-19 CNS = test system: SNB-19 CNS
OVCAR-4 ovarian = test system: OVCAR-4 ovarian
786-0 renal = test system: 786-0 renal
SK-OV-3 ovarian = test system: SK-OV-3 ovarian
SNB-75 CNS = test system: SNB-75 CNS
RPMI-8226 leukemia = test system: RPMI-8226 leukemia
SF-268 CNS = test system: SF-268 CNS
NCI-H522 lung = test system: NCI-H522 lung
HCT-116 colon = test system: HCT-116 colon
HCC-2998 colon = test system: HCC-2998 colon
P388/ADR leukemia = test system: P388/ADR leukemia
LOX IMVI melanoma = test system: LOX IMVI melanoma
CCRF-CEM leukemia = test system: CCRF-CEM leukemia
UACC-62 melanoma = test system: UACC-62 melanoma
KM20L2 colon = test system: KM20L2 colon
MCF7 breast = test system: MCF7 breast
OVCAR-3 ovarian = test system: OVCAR-3 ovarian
SN12C renal = test system: SN12C renal
SF-539 CNS = test system: SF-539 CNS
OVCAR-8 ovarian = test system: OVCAR-8 ovarian
NCI-H226 lung = test system: NCI-H226 lung
HS 578T breast = test system: HS 578T breast
XF 498 CNS = test system: XF 498 CNS
IGROV1 ovarian = test system: IGROV1 ovarian
DMS 114 small cell lung = test system: DMS 114 small cell lung
HOP-18 NSCLC = test system: HOP-18 NSCLC
COLO 205 colon = test system: COLO 205 colon
P388 leukemia = test system: P388 leukemia
SK-MEL-2 melanoma = test system: SK-MEL-2 melanoma
DMS 273 small cell lung = test system: DMS 273 small cell lung
SR leukemia = test system: SR leukemia
UO-31 renal = test system: UO-31 renal
ACHN renal = test system: ACHN renal
HCT-15 colon = test system: HCT-15 colon
KM12 colon = test system: KM12 colon
TK-10 renal = test system: TK-10 renal
A549 NSCLC = test system: A549 NSCLC
SW-620 colon = test system: SW-620 colon
K-562 leukemia = test system: K-562 leukemia
U251 CNS = test system: U251 CNS
SNB-78 CNS = test system: SNB-78 CNS
UACC-257 melanoma = test system: UACC-257 melanoma
A498 renal = test system: A498 renal
SK-MEL-28 melanoma = test system: SK-MEL-28 melanoma
NCI/ADR-RES ovarian = test system: NCI/ADR-RES ovarian
DLD-1 colon = test system: DLD-1 colon

## COc1ccc(/C(Cl)=C(\C=O)c2ccc(OC)c(OC)c2)cc1OC
OVCAR-5 ovarian
  TGI: > 48.7 µM
DU-145 prostate
  TGI: > 100 µM
NCI-H23 lung
  TGI: > 100 µM
EKVX NSCLC
  TGI: > 100 µM
NCI-H460 lung
  TGI: > 100 µM
MDA-MB-231 breast
  TGI: > 100 µM
CAKI-1 renal
  TGI: > 100 µM
MDA-N
  TGI: > 100 µM
PC-3 prostate
  TGI: > 100 µM
MDA-MB-435
  TGI: > 100 µM
SK-MEL-5 melanoma
  TGI: > 100 µM
RXF 393 renal
  TGI: 99.7 µM
HL-60(TB) leukemia
  TGI: > 100 µM
SF-295 CNS
  TGI: 48.2 µM
MALME-3M melanoma
  TGI: > 100 µM
SN12K1 renal
  TGI: > 100 µM
HOP-92 NSCLC
  TGI: > 100 µM
BT-549 breast
  TGI: > 100 µM
HT29 colon
  TGI: > 67.9 µM
M14 melanoma
  TGI: > 100 µM
M19-MEL melanoma
  TGI: > 100 µM
HOP-62 NSCLC
  TGI: > 100 µM
MOLT-4 leukemia
  TGI: > 100 µM
SNB-19 CNS
  TGI: > 100 µM
OVCAR-4 ovarian
  TGI: > 100 µM
786-0 renal
  TGI: > 100 µM
SK-OV-3 ovarian
  TGI: > 100 µM
SNB-75 CNS
  TGI: 41 µM
RPMI-8226 leukemia
  TGI: > 100 µM
SF-268 CNS
  TGI: > 39.8 µM
NCI-H522 lung
  TGI: > 100 µM
HCT-116 colon
  TGI: > 100 µM
HCC-2998 colon
  TGI: > 100 µM
P388/ADR leukemia
  TGI: > 85.8 µM
LOX IMVI melanoma
  TGI: > 100 µM
CCRF-CEM leukemia
  TGI: > 100 µM
UACC-62 melanoma
  TGI: > 100 µM
KM20L2 colon
  TGI: > 100 µM
MCF7 breast
  TGI: > 100 µM
OVCAR-3 ovarian
  TGI: > 57.7 µM
SN12C renal
  TGI: > 100 µM
SF-539 CNS
  TGI: > 100 µM
OVCAR-8 ovarian
  TGI: > 100 µM
NCI-H226 lung
  TGI: 99.9 µM
HS 578T breast
  TGI: > 100 µM
XF 498 CNS
  TGI: > 100 µM
IGROV1 ovarian
  TGI: > 100 µM
DMS 114 small cell lung
  TGI: > 100 µM
HOP-18 NSCLC
  TGI: > 100 µM
COLO 205 colon
  TGI: > 100 µM
P388 leukemia
  TGI: > 100 µM
SK-MEL-2 melanoma
  TGI: > 100 µM
DMS 273 small cell lung
  TGI: > 100 µM
SR leukemia
  TGI: > 100 µM
UO-31 renal
  TGI: > 100 µM
ACHN renal
  TGI: > 100 µM
HCT-15 colon
  TGI: > 100 µM
KM12 colon
  TGI: > 100 µM
TK-10 renal
  TGI: > 100 µM
A549 NSCLC
  TGI: > 100 µM
SW-620 colon
  TGI: > 100 µM
K-562 leukemia
  TGI: > 100 µM
U251 CNS
  TGI: > 100 µM
SNB-78 CNS
  TGI: > 100 µM
UACC-257 melanoma
  TGI: > 66.3 µM
A498 renal
  TGI: > 100 µM
SK-MEL-28 melanoma
  TGI: > 100 µM
NCI/ADR-RES ovarian
  TGI: > 100 µM
DLD-1 colon
  TGI: > 100 µM
